The record followed here is patent publication US6716829B2, “Aldosterone antagonist and cyclooxygenase-2 inhibitor combination therapy to prevent or treat inflammation-related cardiovascular disorders” (Pharmacia Corporation, priority 2000, dated 2004).

Experiment [1] relates to Intracellular adhesion molecule-1 (ICAM-1). Briefly: Assay C: ICAM-1 mRNA in heart by TaqMan RT-PCR. Type of experiment: in vivo, Male Sprague-Dawley rats. The settings on record: for ICAM mRNA (AU): relative to cyclophilin expression, mean ± SEM, eplerenone dose 100 mg/kg/day; for ICAM (AU): mRNA; for ICAM-1 mRNA expression: myocardium, aldosterone + salt, 7, 14, 30 days, eplerenone 100 mg/kg/day. Here is the method: (§1) The procedure of Assay B was expanded upon in a further study. […] Myocardial tissue from animals in each treatment group was examined after 7, 14, or 30 days of treatment.
(§2) Potassium chloride supplementation was added to the saline solution in order to prevent the potential hypokalemia associated with aldosterone excess.
(§3) At the time of the surgery, an Alzet 2002 osmotic minipump (Alza Corp., Palo Alto, Calif.) containing either vehicle (9% ethanol/87% propylene glycol/4% dH2O) or 1.0 mg/mL d-aldosterone (Sigma Chemical, St. Louis, Mo.) was inserted subcutaneously at the nape of the neck. Aldosterone was administered at a dose of 0.75 µg/hour. […] Animals were sacrificed from each group (n=8-13) after 7, 14, or 30 days of treatment.
(§4) The fluorogenic 5′-nuclease assay (TaqMan PCR) using Applied Biosystems' 7700 Sequence Detection System (Applied Biosystems, Foster City, Calif.) allowed for real time detection/quantitation of a specific gene by monitoring the increase in fluorescence of a gene-specific, dye-labeled oligonucleotide probe. Probes for target and reference genes were labeled at the 5′-end with a 6-carboxyfluorescein (6FAM) reporter dye and at the 3′-end with a 6-carboxy-N,N,N′,N′-tetramethylrhodamine (TAMRA) quencher dye. When the probe was annealed to the target gene, fluorescence of 6FAM was prevented by the close proximity of TAMRA. The exonuclease activity of Taq polymerase released the dyes from the oligonucleotide probe by displacing the probe from the target sequence resulting in fluorescence excitation in direct proportion to the amount of target message present. Data analysis was performed using the Sequence Detection System software from Applied Biosystems.
All primers and probes were designed using Primer Express software supplied with the 7700 Sequence Detection System and synthesized by Applied Biosystems. Standard curves using 5-fold dilutions of total RNA (from 200 ng to 320 pg) were performed to determine the efficiency of each primer/probe set in the TaqMan reaction prior to the analysis of the experimental samples. Primer/probe sets were designed from known sequences of rat genes to be analyzed. All target gene values were normalized to a reference gene, constitutively expressed cyclophilin. Primer/probe set sequences can be found in Table 8.
RNA was extracted from frozen (−80° C.) rat heart tissue using the Totally RNA Isolation Kit (Ambion, Inc., Austin, Tex.). Tissue was crushed using a stainless steel mortar and pestle, which had been chilled to −80° C. and transferred to a dounce homogenizer (Kontes, Vineland, N.J.) containing 3-10 mL cold denaturation buffer. Tissue was homogenized and transferred to a sterile, 15 mL polypropylene centrifuge tube. An equal volume of phenol:chloroform:isoamyl alcohol (25:24:1) was added, samples were shaken vigorously for 1 min, and incubated on ice for at least 15 min. Samples were centrifuged for 30 min at 10,000g. The aqueous phase was removed, 1/10 volume of a sodium acetate solution (3.0 M NaOAc pH 4.5) was added, samples were shaken or inverted for 10 seconds, and acid-phenol (premixed with isoamyl alcohol):chloroform (5:1, Ambion, Inc.) was added at an volume equivalent to the starting sample volume. Samples were shaken vigorously for 1 min, followed by a 15-min incubation on ice, and centrifuged for 30 min at 10,000 g. The aqueous phase removed and placed in a clean polypropylene tube. An equal volume of isopropanol (Sigma, St. Louis, Mo.) was added and the samples were mixed and incubated overnight at −20° C. The samples were centrifuged for 30 min at 10,000 g, the supernatant was removed and the RNA pellet was resuspended in DNAse/RNAse-free water. Samples were frozen at −80° C. for at least 2 hours, thawed on wet ice, and diluted for quantitation.
Background: In qPCR the cycle at which signal appears reflects the starting amount.

Experiment [2] relates to Atrial natriuretic factor (ANP). The experiment is described as follows: Assay C: ANP mRNA in left ventricle by TaqMan RT-PCR. The format is in vivo, Male Sprague-Dawley rats. The conditions noted are these: for ANP mRNA: arbitrary units relative to cyclophilin expression; for ANP mRNA (AU): mean ± SEM after 30 days of treatment, eplerenone dose 100 mg/kg/day, relative to cyclophilin expression. As for the experimental part: as §1, §2, §3
Following exsanguination, hearts and kidneys were isolated, removed, rinsed in cold phosphate-buffered saline, and blotted dry. Kidneys were immediately bifurcated through the long axis with a razor blade and placed in 10% neutral buffered formalin (NBF, Richard-Allen Scientific, Kalamazoo, Mich.). For the hearts, the right ventricle (RV) was cut away from the left ventricle (LV), both ventricles were weighed using a Mettler AE163 balance (Mettler-Toledo, Inc., Hightstown, N.J.), and the RV was placed in 10% NBF. A 2 mm coronal slab of the LV apex was removed and frozen with dry ice/isopentane for analysis of gene expression and the remaining portion of the LV was placed in 10% NBF for fixation. Final wet trimming was completed after 3-4 days fixation where a second 2 mm coronal slab was removed for hydroxyproline analysis and a third 2 mm slab was removed from the equatorial region for histology.
as §4
Primers and probes were designed using Oligo Primer Analysis Software, Version 5.0 (National Biosciences Inc. (NBI)-Wojciech Rychlik, Cascade, Colo.). Primers were synthesized by Life Technologies (Grand Island, N.Y.) and probes were synthesized by Applied Biosystems. Primer/probe sets were designed from known sequences of rat genes to be analyzed. All target gene values were normalized to a reference gene, constitutively expressed cyclophilin. Primer/probe sets sequences can be found in Table 8
RNA was extracted from frozen (−70° C.) left ventricle (LV) tissue (approximately 10-20 mg) using 1.5 mL RNA-STAT 60 according to manufacturer's instructions (Leedo Medical Laboratories, Inc., Houston, Tex.). Briefly, tissues were homogenized using a tissue homogenizer equipped with a 5 mm probe (Ultra-Turrax T8 Homogenizer, IKA Works, Inc. Wilmington, N.C.). Following homogenization, an equal volume of molecular grade chloroform (Sigma Chemical Co., St. Louis, Mo.) was incubated with periodic mixing for 10 min at room temperature. Samples were centrifuged at 12,000 g for 10 min and RNA was precipitated from the top layer by adding an equal volume of molecular grade isopropanol (Sigma Chemical Co.) followed by an overnight incubation at −80° C.

Where [3] appears, read: group mean, data used for Table 17 (7-day protocol).
The mark [4] stands for this setting: group mean, data used for Table 18 (14-day protocol).
Setting [5] is: group mean, data used for Table 19 (30-day protocol).
[6] abbreviates: mean ± SEM after 7 days of treatment, eplerenone 100 mg/kg/day.
Where [7] appears, read: mean ± SEM after 14 days of treatment, eplerenone 100 mg/kg/day.

Values joined by “and” are separate entries in the source; they are usually repeats but may differ in a detail not shown here. Equal values may be shown once. “Also recorded” adds a separate entry of the source.

Take `COC(=O)[C@@H]1CC2=CC(=O)CC[C@]2(C)[C@@]23O[C@@H]2C[C@@]2(C)[C@@H](CC[C@@]24CCC(=O)O4)[C@H]13` [Eplerenone]: the results for the “ICAM mRNA (AU)” value in experiment [1] (after 7 days of treatment), in experiment [1] (after 14 days of treatment) and in experiment [1] (after 30 days of treatment) were 0.83 AU, 1.19 AU and 1.22 AU, respectively. Moreover, the “ICAM (AU)” value in experiment [1] (setting [3]) was 0.83 AU; in experiment [1] (setting [4]), 1.19 AU; in experiment [1] (setting [5]) it was 1.22 AU; in experiment [1] (individual rats, data used for Table 17 (7-day protocol), incl. rat marked * excluded from statistics, listed as Eplerenone + aldosterone + salt) it was 0.91 AU and 0.89 AU (2×) and 0.40 AU and 1.23 AU and 0.58 AU and 1.00 AU; in experiment [1] (individual rats, data used for Table 18 (14-day protocol), incl. rat marked * excluded from statistics, listed as Eplerenone + aldosterone + salt) it was 1.20 AU and 1.36 AU and 0.95 AU and 1.26 AU and 1.56 AU and 0.98 AU (2×) and 1.51 AU and 0.79 AU and 1.72 AU and 0.83 AU; in experiment [1] (individual rats, data used for Table 19 (30-day protocol), incl. rat marked * excluded from statistics, listed as Eplerenone + aldosterone + salt) it was 1.54 AU and 2.06 AU and 1.01 AU and 1.21 AU and 1.26 AU and 1.06 AU and 0.60 AU and 0.99 AU and 2.92 AU. For the same compound, the “ICAM-1 mRNA expression” value in experiment [1] is on record as “inhibition; also recorded: significantly reduced”. Moreover, the ANP is 2.84 AU and 3.22 AU and 6.39 AU and 4.04 AU and 25.90 AU and 5.52 AU and 3.57 AU and 2.29 AU and 8.37 AU and 4.24 AU in experiment [2] (14-day protocol, mRNA, individual rats and group Mean, listed as Eplerenone + aldosterone + salt); 6.64 AU in experiment [2] (14-day protocol, mRNA, individual rats and group Mean, listed as Eplerenone + aldosterone + salt, mean); 1.26 AU and 1.81 AU and 0.59 AU and 2.58 AU and 4.48 AU and 4.98 AU and 3.82 AU and 3.59 AU and 0.95 AU and 3.67 AU in experiment [2] (individual rats and group mean, 7 days of treatment, mRNA relative to cyclophilin, aldosterone + salt, eplerenone 100 mg/kg/day); 2.77 AU in experiment [2] (individual rats and group mean, 7 days of treatment, mRNA relative to cyclophilin, aldosterone + salt, eplerenone 100 mg/kg/day, group mean). Also, the “ANP mRNA upregulation” value was “not after 14 days” in experiment [2] (after 14 days of treatment, eplerenone 100 mg/kg/day) and “significantly reduced” in experiment [2] (after 30 days of treatment, eplerenone 100 mg/kg/day). Moreover, the figures for the “ANP mRNA” value in experiment [2] (setting [6]) and in experiment [2] (setting [7]) were 2.77 ± 0.49 AU and 6.64 ± 2.22 AU, respectively. Further, the “ANP mRNA (AU)” value in experiment [2] was determined as 9.20 ± 2.44 AU.
As to `C[C@]12CCC(=O)C=C1CC[C@@H]1[C@@H]2[C@@H](O)C[C@]2(C=O)[C@@H](C(=O)CO)CC[C@@H]12` [Aldosterone], the results for the “ICAM mRNA (AU)” value in experiment [1] (after 7 days of treatment), in experiment [1] (after 14 days of treatment) and in experiment [1] (after 30 days of treatment) were 1.22 AU, 1.47 AU and 1.81 AU, respectively. Besides, the “ICAM (AU)” value in experiment [1] (setting [3]) was 1.22 AU; in experiment [1] (setting [4]), 1.47 AU; in experiment [1] (setting [5]), 1.81 AU; in experiment [1] (individual rats, data used for Table 17 (7-day protocol), incl. rat marked * excluded from statistics, listed as Aldosterone + salt), 1.39 AU and 0.80 AU and 1.09 AU and 1.61 AU and 1.11 AU and 1.15 AU and 1.56 AU and 1.06 AU and 1.68 AU; in experiment [1] (individual rats, data used for Table 18 (14-day protocol), incl. rat marked * excluded from statistics, listed as Aldosterone + salt) it was 1.16 AU and 1.18 AU and 1.75 AU and 1.15 AU and 1.91 AU and 1.19 AU and 1.82 AU and 1.57 AU and 1.84 AU; in experiment [1] (individual rats, data used for Table 19 (30-day protocol), incl. rat marked * excluded from statistics, listed as Aldosterone + salt), 2.67 AU and 1.63 AU and 1.69 AU and 1.50 AU and 1.54 AU. Moreover, in experiment [1], the “ICAM-1 mRNA expression” value is “upregulated at day 14 and 30”. For the same compound, the ANP was 4.58 AU and 7.75 AU and 7.34 AU and 4.18 AU and 1.59 AU and 17.81 AU and 6.48 AU and 8.08 AU and 2.51 AU in experiment [2] (14-day protocol, mRNA, individual rats and group Mean, listed as Aldosterone + salt); 6.70 AU in experiment [2] (14-day protocol, mRNA, individual rats and group Mean, listed as Aldosterone + salt, mean); 23.59 AU and 43.11 AU and 14.83 AU (2×) and 18.90 AU and 23.43 AU and 15.14 AU and 6.77 AU and 20.97 AU in experiment [2] (30-day protocol, mRNA, individual rats and group Mean, listed as Aldosterone + salt); 20.17 AU in experiment [2] (30-day protocol, mRNA, individual rats and group Mean, listed as Aldosterone + salt, group mean). In experiment [2] (aldosterone + salt vs vehicle + salt (Tables 11-13)), the “ANP mRNA levels” value is listed as “Significant elevations”. The “ANP mRNA” value in experiment [2] (setting [6]) turned out to be 8.72 ± 1.51 AU; in experiment [2] (setting [7]), 6.70 ± 1.59 AU. The “ANP mRNA (AU)” value in experiment [2] was 20.17 ± 3.36 AU.
